The results in this text go back to PubChem BioAssay AID330 (DTP/NCI, 2004).

For this assay, the system named is P388 leukemia ip, CD2F1 mice, survival T/C. Put plainly: NCI In Vivo Anticancer Drug Screen. Data for tumor model P388 Leukemia (intraperitoneal) in CD2F1 (CDF1) mice. Particulars: endpoint: median survival time, higher = longer survival. Summed up: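 Mice carrying the transplanted tumor received test compound or vehicle. Survival was recorded in each group, and the value is the treated-group measurement divided by that of the vehicle-treated control group.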

Setting [1] is: dose: 6.25 mg/kg/injection, schedule: Q01DX009 (ip), vehicle: saline.
The mark [2] stands for this setting: dose: 12.5 mg/kg/injection, schedule: Q01DX009 (ip), vehicle: saline.
Where [3] appears, read: dose: 50.0 mg/kg/injection, schedule: Q01DX009 (ip), vehicle: saline.
The mark [4] stands for this setting: dose: 50.0 mg/kg/injection, schedule: Q01DX009 (ip), vehicle: saline with Tween-80.
[5] abbreviates: dose: 100.0 mg/kg/injection, schedule: Q01DX009 (ip), vehicle: saline with Tween-80.
Where [6] appears, read: dose: 100.0 mg/kg/injection, schedule: Q01DX009 (ip), vehicle: saline.
The mark [7] stands for this setting: dose: 12.5 mg/kg/injection, schedule: Q01DX009 (ip), vehicle: saline with Tween-80.
[8] abbreviates: dose: 25.0 mg/kg/injection, schedule: Q01DX009 (ip), vehicle: saline with Tween-80.
[9] abbreviates: dose: 200.0 mg/kg/injection, schedule: Q01DX009 (ip), vehicle: saline with Tween-80.
Where [10] appears, read: dose: 200.0 mg/kg/injection, schedule: Q01DX009 (ip), vehicle: saline.
Setting [11] is: dose: 50.0 mg/kg/injection, schedule: Q01DX005 (ip), vehicle: Klucel (hydroxypropylcellulose) (HPC).
[12] abbreviates: dose: 100.0 mg/kg/injection, schedule: Q01DX005 (ip), vehicle: Klucel (hydroxypropylcellulose) (HPC).

Several values for one entry are separate records, joined by “and”; a condition that tells them apart may be missing. Equal entries are not always repeated. Inconclusive results and toxic doses are left out.

As for `O=C1CC(=O)C(Br)=C1Br`, the T/C by setting is: (dose: 0.37 mg/kg/injection, schedule: Q01DX009 (ip), vehicle: saline) 109 % of control; (dose: 0.75 mg/kg/injection, schedule: Q01DX009 (ip), vehicle: saline) 100 % of control; (dose: 0.75 mg/kg/injection, schedule: Q04DX003 (ip), vehicle: saline with Tween-80) 95 % of control; (dose: 1.5 mg/kg/injection, schedule: Q01DX009 (ip), vehicle: saline) 100 % of control.
In the case of `O=C(Nc1ccc(Cl)cc1)Nc1nnc2nc(C(C(=O)c3cccs3)c3nc4nnc(NC(=O)Nc5ccc(Cl)cc5)n4[nH]c3=O)c(=O)[nH]n12`, the T/C reads like this: (dose: 60.0 mg/kg/injection, schedule: Q01DX005 (ip), vehicle: saline with Tween-80) 91 % of control; (dose: 120.0 mg/kg/injection, schedule: Q01DX005 (ip), vehicle: saline with Tween-80) 94 % of control.
On to `Cn1/c(=N\NC(=O)c2ccncc2)sc2ccccc21`, for which the T/C reads like this: (dose: 6.25 mg/kg/injection, schedule: Q01DX009 (ip), vehicle: Klucel (hydroxypropylcellulose) (HPC)) 110 % of control; (dose: 12.5 mg/kg/injection, schedule: Q01DX009 (ip), vehicle: Klucel (hydroxypropylcellulose) (HPC)) 107 % of control; (dose: 25.0 mg/kg/injection, schedule: Q01DX009 (ip), vehicle: Klucel (hydroxypropylcellulose) (HPC)) 115 % of control.
Take `CC(C)c1ccc(C(CC(=O)c2ccccc2)C(C(=O)O)c2ccc([N+](=O)[O-])cc2)cc1` (stereo not given): the T/C was 105 % of control (dose: 50.0 mg/kg/injection, schedule: Q01DX009 (ip), vehicle: Klucel (hydroxypropylcellulose) (HPC)); 103 % of control (dose: 100.0 mg/kg/injection, schedule: Q01DX009 (ip), vehicle: Klucel (hydroxypropylcellulose) (HPC)); 104 % of control (dose: 200.0 mg/kg/injection, schedule: Q01DX009 (ip), vehicle: Klucel (hydroxypropylcellulose) (HPC)).
For the compound `CCC(=O)[O-].CCC(=O)[O-].CCC(=O)[O-].CCC(=O)[O-].O=S(=O)(O)O.[Re].[Re]`, the T/C runs as follows: (dose: 72.0 mg/kg/injection, schedule: Q01DX009 (ip), vehicle: saline) 107 % of control; (dose: 103.0 mg/kg/injection, schedule: Q01DX009 (ip), vehicle: saline) 100 % of control; (dose: 147.0 mg/kg/injection, schedule: Q01DX009 (ip), vehicle: saline) 102 % of control; (dose: 171.5 mg/kg/injection, schedule: Q01DX009 (ip), vehicle: suspension in saline) 109 % of control; (dose: 210.0 mg/kg/injection, schedule: Q01DX009 (ip), vehicle: saline) 108 % of control; (dose: 245.0 mg/kg/injection, schedule: Q01DX009 (ip), vehicle: suspension in saline) 120 % of control. For the same compound, the T/C (dose: 300.0 mg/kg/injection, schedule: Q01DX009 (ip), vehicle: saline) was 91 % of control.
Take `NC(CO)C(=O)O.[Cl-].[Cl-].[Cl-].[Cl-].[Pt+2]` (stereo not given): the T/C was 114 % of control under setting [1], 115 % of control under setting [2] and 159 % of control under setting [3].
As for `CCS/C(C#N)=C(/OC)c1ccccc1Cl`, the T/C is 89 % of control under setting [4] and 94 % of control under setting [5].
As to `O=C(Nc1ccc(Cl)cc1)NC1OC(=O)C(Cl)=C1Cl` (stereo not given), the T/C runs as follows: under setting [1], 105 % of control; under setting [2], 108 % of control; (dose: 25.0 mg/kg/injection, schedule: Q01DX009 (ip), vehicle: saline) 106 % of control; under setting [3], 117 % of control; under setting [6], 106 % of control.
Regarding `COc1ccc(-c2n(O)c(C)c(C)[n+]2[O-])cc1`, the T/C under setting [7] was 101 % of control; the T/C under setting [8] was 100 % of control; the T/C under setting [4] is 102 % of control and 92 % of control.
As for `CCOC(=O)c1ccc(NC(CCNC2CCCCC2)=NC(C)(C)C)cc1`, the T/C under setting [4] was 96 % of control, the T/C under setting [5] is 97 % of control and the T/C under setting [9] is 96 % of control.
As for `COc1ccc(NC(=O)c2ccc3c(c2)OCO3)cc1`, the T/C by setting is: (dose: 12.5 mg/kg/injection, schedule: Q01DX009 (ip), vehicle: other) 108 % of control; (dose: 25.0 mg/kg/injection, schedule: Q01DX009 (ip), vehicle: other) 103 % of control; (dose: 50.0 mg/kg/injection, schedule: Q01DX009 (ip), vehicle: other) 94 % of control; (dose: 100.0 mg/kg/injection, schedule: Q01DX009 (ip), vehicle: other) 95 % of control; (dose: 200.0 mg/kg/injection, schedule: Q01DX009 (ip), vehicle: other) 91 % of control.
For `COc1cc2c(cc1O)-c1oncc1CCC2`, the T/C by setting is: (dose: 100.0 mg/kg/injection, schedule: Q04DX002 (ip), vehicle: saline) 94 % of control; (dose: 200.0 mg/kg/injection, schedule: Q04DX002 (ip), vehicle: saline) 98 % of control; (dose: 400.0 mg/kg/injection, schedule: Q04DX002 (ip), vehicle: saline) 95 % of control.
Consider `COC1C(CO)OC(Oc2ccc(C(=C3CCCCC3)c3ccc(O)cc3)cc2)C(O)C1O` (stereo not given), for which the T/C reads like this: under setting [3], 95 % of control; under setting [6], 95 % of control; under setting [10], 94 % of control.
With `COc1cc2ccnc(/C=N\NC(N)=S)c2cc1OC`, the T/C is 98 % of control under setting [8], 101 % of control under setting [4], 107 % of control under setting [5] and 118 % of control under setting [9].
As for `CC(C)OC(=O)NC1CCC2CCCCC2C1` (stereo not given), the T/C is, setting by setting: under setting [3], 102 % of control; under setting [6], 102 % of control; under setting [10], 100 % of control.
Take `Cn1nc(-c2cccc(F)c2)[n+](C)n1`: the T/C (dose: 50.0 mg/kg/injection, schedule: Q01DX005 (ip), vehicle: saline) was 102 % of control and the T/C (dose: 100.0 mg/kg/injection, schedule: Q01DX005 (ip), vehicle: saline) was 98 % of control.
In the case of `[Cl][Co][Cl].c1ccc2[nH]cnc2c1.c1ccc2[nH]cnc2c1`, the T/C was 111 % of control under setting [11] and 111 % of control under setting [12].
Regarding `CCSSc1ccccc1C(=O)O`, the T/C was 102 % of control under setting [11]; 109 % of control under setting [12]; 112 % of control (dose: 200.0 mg/kg/injection, schedule: Q01DX005 (ip), vehicle: Klucel (hydroxypropylcellulose) (HPC)).
As for `CCC(=O)NCC(=O)O`, the T/C runs as follows: (dose: 3.13 mg/kg/injection, schedule: Q01DX009 (ip), vehicle: saline with Tween-80) 100 % of control; (dose: 6.25 mg/kg/injection, schedule: Q01DX009 (ip), vehicle: saline with Tween-80) 104 % of control and 86 % of control; (dose: 6.25 mg/kg/injection, schedule: Q04DX003 (ip), vehicle: saline with Tween-80) 110 % of control; under setting [7], 109 % of control; (dose: 12.5 mg/kg/injection, schedule: Q04DX003 (ip), vehicle: saline with Tween-80) 100 % of control; (dose: 25.0 mg/kg/injection, schedule: Q04DX003 (ip), vehicle: saline with Tween-80) 100 % of control.
In the case of `O=C(OCC1OC(n2cnc3c(=S)nc[nH]c32)C(OC(=O)c2ccc(Cl)cc2)C1OC(=O)c1ccc(Cl)cc1)c1ccc(Cl)cc1` (stereo not given), the T/C by setting is: under setting [4], 90 % of control; under setting [5], 90 % of control; under setting [9], 90 % of control; (dose: 400.0 mg/kg/injection, schedule: Q01DX009 (ip), vehicle: saline with Tween-80) 90 % of control.
